ChEMBL document CHEMBL1156457, “Mechanisms for picrotoxinin and picrotin blocks of alpha2 homomeric glycine receptors” (J Biol Chem, 2007)
Calls of active or inactive are those of the source. The calls are words filed in the database; no cut-off is given here.

Tests used:
[1] = molecular target: T1, Glycine receptor subunit alpha-2 (Rattus norvegicus) (UniProt P22771); assay: Inhibition of rat alpha2 homomeric glycine receptor expressed in CHO cells assessed as inhibition of deactivation time constant by outside patch clamp technique; format: cell-based
T1 sequence (whole entry): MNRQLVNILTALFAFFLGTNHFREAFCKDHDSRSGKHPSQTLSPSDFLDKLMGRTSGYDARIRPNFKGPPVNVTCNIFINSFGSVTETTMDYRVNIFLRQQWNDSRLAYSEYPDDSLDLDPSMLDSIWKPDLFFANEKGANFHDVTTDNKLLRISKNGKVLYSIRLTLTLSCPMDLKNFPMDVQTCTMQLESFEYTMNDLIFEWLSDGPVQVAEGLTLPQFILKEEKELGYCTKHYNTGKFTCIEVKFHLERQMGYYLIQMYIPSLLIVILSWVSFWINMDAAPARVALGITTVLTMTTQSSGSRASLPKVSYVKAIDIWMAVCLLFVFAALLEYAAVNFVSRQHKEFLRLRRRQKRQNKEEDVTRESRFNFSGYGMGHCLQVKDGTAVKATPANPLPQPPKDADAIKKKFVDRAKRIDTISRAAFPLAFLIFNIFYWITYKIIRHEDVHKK

[2] = molecular target: T1, Glycine receptor subunit alpha-2 (Rattus norvegicus); assay: Effect on rat alpha2 homomeric glycine receptor expressed in CHO cells assessed as change in rising time constant of glycine response at 300 uM by outside patch clamp technique; format: cell-based
[3] = molecular target: T1, Glycine receptor subunit alpha-2 (Rattus norvegicus); assay: Effect on rat alpha2 homomeric glycine receptor expressed in CHO cells assessed as shortened single receptor burst opening in response to glycine-pulse at 30 uM by outside patch clamp technique; format: cell-based
[4] = molecular target: T1, Glycine receptor subunit alpha-2 (Rattus norvegicus); assay: Effect on rat alpha2 homomeric glycine receptor expressed in CHO cells assessed as change in relative area of rising time constant of glycine response at 300 uM by outside patch clamp technique; format: cell-based
[5] = molecular target: T1, Glycine receptor subunit alpha-2 (Rattus norvegicus); assay: Effect on rat alpha2 homomeric glycine receptor expressed in CHO cells assessed as shortened deactivation phase of glycine-evoked response at 100 uM administered before glycine challenge by outside patch clamp technique; format: cell-based
[6] = molecular target: T1, Glycine receptor subunit alpha-2 (Rattus norvegicus); assay: Effect on rat alpha2 homomeric glycine receptor expressed in CHO cells assessed as glycine-evoked response at 100 uM administered before glycine challenge by outside patch clamp technique; format: cell-based
[7] = molecular target: T1, Glycine receptor subunit alpha-2 (Rattus norvegicus); assay: Inhibition of rat alpha2 homomeric glycine receptor expressed in CHO cells assessed as inhibition of 300 uM glycine-elicited current at 3 uM by outside patch clamp technique; format: cell-based
[8] = molecular target: T2, Glycine receptor subunit alpha-2 (Rattus norvegicus, UniProt P22771); assay: Inhibition of rat alpha2 homomeric glycine receptor expressed in CHO cells assessed as inhibition of 300 uM glycine-elicited current by outside patch clamp technique; format: cell-based
T2 sequence (P22771 whole entry): T1 sequence (whole entry)

[9] = molecular target: T1, Glycine receptor subunit alpha-2 (Rattus norvegicus); assay: Effect on rat alpha2 homomeric glycine receptor expressed in CHO cells assessed as decrease in activation phase of glycine response at 30 uM by outside patch clamp technique; format: cell-based
[10] = molecular target: T1, Glycine receptor subunit alpha-2 (Rattus norvegicus); assay: Inhibition of rat alpha2 homomeric glycine receptor expressed in CHO cells assessed as inhibition of 30 mM glycine-elicited current at 300 uM by outside patch clamp technique
[11] = molecular target: T1, Glycine receptor subunit alpha-2 (Rattus norvegicus); assay: Effect on rat alpha2 homomeric glycine receptor expressed in CHO cells assessed as flickering of channel in response to glycine-pulse at 30 uM by outside patch clamp technique; format: cell-based
[12] = molecular target: T1, Glycine receptor subunit alpha-2 (Rattus norvegicus); assay: Inhibition of rat alpha2 homomeric glycine receptor expressed in CHO cells assessed as inhibition of 300 uM glycine-elicited current at 300 uM by outside patch clamp technique
[13] = molecular target: T1, Glycine receptor subunit alpha-2 (Rattus norvegicus); assay: Effect on rat alpha2 homomeric glycine receptor expressed in CHO cells assessed as decrease in channel mean open time by outside patch clamp technique relative to control; format: cell-based
[14] = molecular target: T1, Glycine receptor subunit alpha-2 (Rattus norvegicus); assay: Inhibition of rat alpha2 homomeric glycine receptor expressed in CHO cells assessed as inhibition of 300 uM glycine-elicited current at 100 uM at -50 mV voltage by outside patch clamp technique; format: cell-based
[15] = molecular target: T1, Glycine receptor subunit alpha-2 (Rattus norvegicus); assay: Inhibition of rat alpha2 homomeric glycine receptor expressed in CHO cells assessed as inhibition of 300 uM glycine-elicited current at 100 uM at +50 mV voltage by outside patch clamp technique; format: cell-based
[16] = molecular target: T1, Glycine receptor subunit alpha-2 (Rattus norvegicus); assay: Effect on rat alpha2 homomeric glycine receptor expressed in CHO cells assessed as decrease in channel mean open time at 30 uM by outside patch clamp technique relative to control; format: cell-based
[17] = molecular target: T1, Glycine receptor subunit alpha-2 (Rattus norvegicus); assay: Inhibition of rat alpha2 homomeric glycine receptor expressed in CHO cells assessed as inhibition of 300 uM glycine-elicited current at 10 uM by outside patch clamp technique; format: cell-based
[18] = molecular target: T1, Glycine receptor subunit alpha-2 (Rattus norvegicus); assay: (§1) Inhibition of rat alpha2 homomeric glycine receptor expressed in CHO cells assessed as inhibition of 300 uM glycine-elicited current at 3 uM at +50 mV voltage by outside patch clamp technique; format: cell-based
[19] = molecular target: T1, Glycine receptor subunit alpha-2 (Rattus norvegicus); assay: Effect on rat alpha2 homomeric glycine receptor expressed in CHO cells assessed as shortened deactivation phase of glycine-evoked response at 10 uM administered before glycine challenge by outside patch clamp technique; format: cell-based
[20] = molecular target: T1, Glycine receptor subunit alpha-2 (Rattus norvegicus); assay: Effect on rat alpha2 homomeric glycine receptor expressed in CHO cells assessed as decrease in activation phase of glycine response at 10 uM by outside patch clamp technique; format: cell-based
[21] = molecular target: T1, Glycine receptor subunit alpha-2 (Rattus norvegicus); assay: Effect on rat alpha2 homomeric glycine receptor expressed in CHO cells assessed as glycine-evoked response at 10 uM administered before glycine challenge by outside patch clamp technique; format: cell-based
[22] = molecular target: T1, Glycine receptor subunit alpha-2 (Rattus norvegicus); assay: Effect on rat alpha2 homomeric glycine receptor expressed in CHO cells assessed as change in rising time constant of glycine response at 10 uM by outside patch clamp technique; format: cell-based
[23] = molecular target: T1, Glycine receptor subunit alpha-2 (Rattus norvegicus); assay: Inhibition of rat alpha2 homomeric glycine receptor expressed in CHO cells assessed as inhibition of 30 mM glycine-elicited current at 10 uM by outside patch clamp technique
[24] = molecular target: T1, Glycine receptor subunit alpha-2 (Rattus norvegicus); assay: Effect on rat alpha2 homomeric glycine receptor expressed in CHO cells assessed as change in relative area of rising time constant of glycine response at 10 uM by outside patch clamp technique; format: cell-based
[25] = molecular target: T1, Glycine receptor subunit alpha-2 (Rattus norvegicus); assay: Effect on rat alpha2 homomeric glycine receptor expressed in CHO cells assessed as shortened single receptor burst opening in response to glycine-pulse at 10 uM by outside patch clamp technique; format: cell-based
[26] = molecular target: T1, Glycine receptor subunit alpha-2 (Rattus norvegicus); assay: Effect on rat alpha2 homomeric glycine receptor expressed in CHO cells assessed as decrease in channel mean open time at 10 uM by outside patch clamp technique relative to control; format: cell-based
[27] = molecular target: T1, Glycine receptor subunit alpha-2 (Rattus norvegicus); assay: as §1; format: cell-based; remark: listed apart in the source
[28] = molecular target: T1, Glycine receptor subunit alpha-2 (Rattus norvegicus); assay: Effect on rat alpha2 homomeric glycine receptor expressed in CHO cells assessed as decrease in glycine-evoked recovery time constant at 10 uM by outside patch clamp technique; format: cell-based

Structure (SMILES): CC(C)(O)[C@@H]1[C@H]2OC(=O)[C@@H]1[C@]1(O)C[C@H]3O[C@]34C(=O)O[C@H]2[C@]14C [PICROTIN]
- Activity [1]: Dose-dependent effect
- Activity [2]: 91.1%
- Activity [3]: Active
- Activity [4]: 8.9%
- Activity [5]: Active
- Activity [6]: Active
- inhibition [7]: 3.4%
- IC50 [8]: 117 µM
- Activity [9]: Active
- inhibition [10]: 36.3%
- Activity [11]: Active
- inhibition [12]: 63.7%
- Activity [13]: Dose-dependent effect
- Activity [14]: Active
- Activity [15]: Active
- Activity [16]: 2.9 ms

Structure (SMILES): C=C(C)[C@@H]1[C@H]2OC(=O)[C@@H]1[C@]1(O)C[C@H]3O[C@]34C(=O)O[C@H]2[C@]14C [PICROTOXININ]
- Activity [1]: Dose-dependent effect
- inhibition [17]: 78.9%
- Activity [18]: Active
- Activity [19]: Active
- Activity [20]: Active
- Activity [21]: Active
- Activity [22]: 81%
- inhibition [7]: 50%
- IC50 [8]: 2.4 µM
- inhibition [23]: 47.4%
- Activity [24]: 19%
- Activity [13]: Dose-dependent effect
- Activity [25]: Active
- Activity [26]: 9.3 ms
- Activity [27]: Active
- Activity [28]: 17.6 ms
